Key:
HePTP = target: T1, HePTP (Homo sapiens, UniProt P35236); assay: biochemical; assay type: biochemical
T1 sequence (P35236 1-360): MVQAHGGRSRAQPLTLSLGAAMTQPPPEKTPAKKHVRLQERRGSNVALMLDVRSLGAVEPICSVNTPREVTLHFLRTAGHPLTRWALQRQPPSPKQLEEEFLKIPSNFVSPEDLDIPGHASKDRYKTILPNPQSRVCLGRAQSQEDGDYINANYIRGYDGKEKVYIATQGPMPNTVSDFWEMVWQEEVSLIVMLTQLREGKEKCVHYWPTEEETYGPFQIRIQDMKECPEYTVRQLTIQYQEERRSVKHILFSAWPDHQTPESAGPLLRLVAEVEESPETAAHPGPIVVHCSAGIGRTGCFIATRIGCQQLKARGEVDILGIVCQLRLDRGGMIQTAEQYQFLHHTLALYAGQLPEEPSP

mPTPA = mPTPA (Mycobacterium tuberculosis, UniProt P9WIA1); assay: PTP selectivity panel: mPTPA; assay type: biochemical
Cdc14A = target: T2, Cdc14A (Homo sapiens, UniProt Q9UNH5); assay: PTP selectivity panel: Cdc14A; assay type: biochemical
T2 sequence (Q9UNH5 1-594): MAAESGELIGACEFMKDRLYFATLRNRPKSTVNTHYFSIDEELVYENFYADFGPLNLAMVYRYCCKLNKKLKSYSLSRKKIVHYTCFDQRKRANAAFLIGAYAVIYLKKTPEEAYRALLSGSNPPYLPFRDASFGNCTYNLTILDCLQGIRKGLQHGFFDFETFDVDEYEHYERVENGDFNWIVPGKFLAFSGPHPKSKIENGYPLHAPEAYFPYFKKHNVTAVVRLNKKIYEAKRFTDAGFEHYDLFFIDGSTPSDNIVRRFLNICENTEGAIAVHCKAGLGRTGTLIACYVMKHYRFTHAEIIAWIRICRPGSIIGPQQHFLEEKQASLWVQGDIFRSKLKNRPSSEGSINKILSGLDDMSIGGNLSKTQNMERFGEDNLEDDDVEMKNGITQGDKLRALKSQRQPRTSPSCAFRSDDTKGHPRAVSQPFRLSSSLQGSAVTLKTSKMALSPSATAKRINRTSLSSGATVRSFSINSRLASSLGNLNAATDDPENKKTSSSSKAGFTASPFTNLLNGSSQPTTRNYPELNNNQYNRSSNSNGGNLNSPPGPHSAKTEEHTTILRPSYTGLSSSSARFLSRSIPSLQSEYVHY

[1] = system: IL-6 secretion in cells expressing mPTPB; assay: IL-6 secretion in cells expressing mPTPB; assay type: cell-based; details: especially at 120 and 240 nM
From the text: As explained above, ERK phosphorylation is important in the cellular secretion pathway of IL-6. However, mPTPB blocks or inhibits the phosphorylation of ERK which reduces and potentially prevents IL-6 secretion altogether.

Chain of mPTPA (P9WIA1 whole entry): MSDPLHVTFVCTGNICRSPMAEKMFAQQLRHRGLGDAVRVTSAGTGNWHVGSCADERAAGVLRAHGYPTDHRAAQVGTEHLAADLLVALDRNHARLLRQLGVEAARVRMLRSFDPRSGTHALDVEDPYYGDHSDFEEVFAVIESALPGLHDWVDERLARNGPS

| Structure (SMILES) | IC50 (HePTP) [µM] | IC50 (mPTPA) [µM] | IC50 (Cdc14A) [µM] | IL-6 secretion [1] |
| --- | --- | --- | --- | --- |
| Cn1c(-c2ccccc2C(F)(F)F)c(I)c2cc(C(=O)O)c(O)cc21 [Compound 207a, 6-hydroxy-3-iodo-1-methyl-2-(2-(trifluoromethyl)phenyl)-1H-indole-5-carboxylic acid] | 86 ± 6 | 82 ± 1 | – | – |
| O=C(O)c1cc2c(C#Cc3cccc(C(F)(F)F)c3)c(-c3ccccc3)oc2cc1O [32 (L01Z08)] | – | – | 6 ± 1 | returned to normal or near normal IL-6 secretion levels |
